Data from US12599572B2, “Solid lipid nanoparticles of curcumin” (priority 2018, dated 2026).
≈ marks a conversion by molar mass, not a printed value. Read-outs that look alike come from different tables or passages of the source.

Tests used:
[1] = Pharmacokinetic studies, single oral dose; assay type: in vivo, Wistar Rats; conditions: rats, 100 mg/kg single oral dose
Method: For in vivo pharmacokinetic studies, female Wistar Rats were used. The animals were divided into 3 groups (n=3). […] The blood samples (0.5 ml) were withdrawn from retro-orbital plexus at different time intervals and collected into microcentrifuge tubes containing EDTA. Plasma was separated by centrifuging the blood samples at 10000 rpm for 6 min at 5° C. After centrifugation, the plasma obtained was stored at −20° C. until analysis. […] To 50 μl of plasma samples in an eppendorf tube, 150 μl of methanol and 300 μl of acetonitrile:water (1:1) was added. The sample was vortexed for 5 min and centrifuged at 15,000 rpm to separate precipitated proteins. Supernatant was transferred to suitably labelled tubes. The sample was filtered through 0.2 μm syringe filter and was used for analysis using the developed Ultra high pressure liquid chromatography (UPLC) method. The pharmacokinetic parameters were calculated using non-compartmental model. The area under the concentration-time curve from time zero to time t (AUCo-t) was calculated using the trapezoidal method. Peak concentration (Cmax) and the time at which the peak concentration is achieved (Tmax), were obtained directly from the individual concentration-time profiles. All values were corrected for the spiked concentration. The area under the concentration-time curve from time zero to infinity was calculated by: AUCo-x=AUCo-+Ct/Ke, where Ct is the drug concentration observed at the last time and Ke is the apparent elimination rate constant obtained from the terminal slope of the individual concentration-time curves after logarithmic transformation of the concentration values and application of linear regression. AUMC was determined by plotting concentration*time (ct) versus time (t) using trapezoidal method. Mean residence time (MRT) was calculated by: MRT=AUMC/AUC.

[2] = In-vitro release (Franz-diffusion cells, dialysis membrane); assay type: physicochemical
Method: Jacketed franz-diffusion cells were used for the determination of in-vitro release of free curcumin and curcumin from C-SLNaq. These cells consist of the donor and the receptor chamber between which dialysis membrane is positioned. The dialysis membrane was soaked in double distilled water for 12 h prior to use. The whole system was water jacketed and thermostatically controlled by an external circulating water bath at 37° C.±1° C. The used receptor media consisted of 50% ethanol in distilled water. […] The receptor media was stirred throughout the experiment, using a magnetic stirrer. Iml aliquots were withdrawn regularly from the receptor compartment at various times starting at 30 min and replaced by an equal volume of fresh receptor medium. The samples were analysed, immediately, spectrophotometrically at 425 nm.

[3] = Degradation studies (hydrolytic stability at pH 1.2, 6.8, 7.4 and 9); assay type: physicochemical; conditions: for k value: zero order
Method: It was further diluted to 5 μg/ml with respective buffers (pH 1.2, pH 6.8, pH 7.4 and pH 9). In case of C-SLNaq, Iml dispersion was placed in a dialysis bag and dialyzed against methanol (100 ml) at room temperature for 45 minutes to remove unentrapped drug. […] The stock solution and sample solution were prepared in amber coloured volumetric flasks to avoid photodegradation. The solutions were prepared and incubated at 37° C. […] […] Presence of water quenches the fluorescent intensity of curcumin. The samples were thus analysed subsequently using the UV/Visible spectrophotometer at λmax425 nm. The absorbance read at zero time was considered as 100% and change in concentration and % degradation was determined accordingly.
The graph between concentration versus time, log concentration versus time and percent drug remaining versus time were plotted.

[4] = Photostability study (ICH); assay type: physicochemical
Method: The above samples were placed in photostability chamber and exposed to light providing illumination of not less than 1.2 million lux hours for 10 days. After 10 days the containers were withdrawn and […] evaluated for total drug content, entrapment efficiency, particle size, zeta-potential and PDI. Samples of free drug, […] and C-SLNbent were analysed for total drug content.

[5] = combined with piperine, rats (Shoba et al., 1998); cited from earlier work
Solubility of curcumin = assay type: physicochemical

AUC(0-inf) ([1]; female, Wistar, rat, plasma): 2.69 ng·h/mL | Cmax ([1]; female, Wistar, rat, plasma): 1.79 ng/mL | MRT ([1]; female, Wistar, rat, plasma): 2 h | Tmax ([1]; female, Wistar, rat, plasma): 2 h | AUMC0-∞ [1]: 5.38 h^2*ng/ml | order of release [2]: first order | release model followed [2]: Hixon model | time over which drug was released ([2]; receptor 50% ethanol, 37° C.): ≤ 8 h | half-life at 5 μg/ml ([3]; alkaline borate buffer pH 9, pH 9): 0.669 h | half-life at 5 μg/ml ([3]; buffer pH 1.2, pH 1.2): 17.3 h | order of degradation kinetics ([3]; investigated pH conditions (C-SLN: except pH 9)): zero order | Percentage remaining ([3]; pH 1.2, 0 h): 100.00 ± 0.06% | Percentage remaining ([3]; pH 1.2, 0.08 h): 89.23 ± 0.02% | Percentage remaining ([3]; pH 1.2, 0.25 h): 88.29 ± 0.01% | Percentage remaining ([3]; pH 1.2, 0.5 h): 85.60 ± 0.01% | Percentage remaining ([3]; pH 1.2, 1 h): 87.24 ± 0.001% | Percentage remaining ([3]; pH 1.2, 2 h): 72.37 ± 0.02% | Percentage remaining ([3]; pH 1.2, 3 h): 68.74 ± 0.03% | Percentage remaining ([3]; pH 1.2, 4 h): 62.76 ± 0.01% | Percentage remaining ([3]; pH 1.2, 5 h): 61.01 ± 0.01% | Percentage remaining ([3]; pH 1.2, 6 h): 53.40 ± 0.02% | Percentage remaining ([3]; pH 1.2, 24 h): 15.76 ± 0.01% | degradation ([3]; pH 1.2, 24 h): ≤ 85% | degradation ([3]; pH 1.2, upto 6 h): ≤ 50% | degradation ([3]; pH 1.2 medium, 4h): ~40% | Percentage remaining ([3]; pH 6.8, 0 h): 100.00 ± 0.04% | Percentage remaining ([3]; pH 6.8, 0.08 h): 94.93 ± 0.06% | Percentage remaining ([3]; pH 6.8, 0.25 h): 87.63 ± 0.04% | Percentage remaining ([3]; pH 6.8, 0.5 h): 81.95 ± 0.08% | Percentage remaining ([3]; pH 6.8, 1 h): 79.72 ± 0.06% | Percentage remaining ([3]; pH 6.8, 2 h): 66.73 ± 0.05% | Percentage remaining ([3]; pH 6.8, 3 h): 62.68 ± 0.07% | Percentage remaining ([3]; pH 6.8, 4 h): 57.81 ± 0.05% | Percentage remaining ([3]; pH 6.8, 5 h): 43.61 ± 0.08% | Percentage remaining ([3]; pH 6.8, 6 h): 23.12 ± 0.04% | degradation ([3]; pH 6.8, 6 h): 77% | Percentage remaining ([3]; pH 6.8, 24 h): 11.36 ± 0.04% | degradation ([3]; pH 6.8, 24 h): 89% | Percentage remaining ([3]; pH 7.4, 0 h): 100.0 ± 0.060% | Percentage remaining ([3]; pH 7.4, 0.08 h): 96.33 ± 0.02% | Percentage remaining ([3]; pH 7.4, 0.25 h): 93.81 ± 0.04% | Percentage remaining ([3]; pH 7.4, 0.5 h): 84.17 ± 0.04% | Percentage remaining ([3]; pH 7.4, 1 h): 75.92 ± 0.04% | Percentage remaining ([3]; pH 7.4, 2 h): 67.20 ± 0.03% | Percentage remaining ([3]; pH 7.4, 3 h): 61.01 ± 0.03% | Percentage remaining ([3]; pH 7.4, 4 h): 49.08 ± 0.04% | Percentage remaining ([3]; pH 7.4, 5 h): 40.60 ± 0.03% | Percentage remaining ([3]; pH 7.4, 6 h): 24.31 ± 0.01% | degradation ([3]; pH 7.4, 6 h): 75% | Percentage remaining ([3]; pH 7.4, 24 h): 13.99 ± 0.01% | degradation ([3]; pH 7.4, 24 h): 77% | Percentage remaining ([3]; pH 9, 0 h): 100.00 ± 0.004% | Percentage remaining ([3]; pH 9, 0.08 h): 82.59 ± 0.009% | Percentage remaining ([3]; pH 9, 0.25 h): 61.43 ± 0.004% | Percentage remaining ([3]; pH 9, 0.5 h): 32.76 ± 0.006% | Percentage remaining ([3]; pH 9, 1 h): 20.48 ± 0.001% | Percentage remaining ([3]; pH 9, 2 h): 15.70 ± 0.002% | Percentage remaining ([3]; pH 9, 3 h): 9.90 ± 0.003% | Percentage remaining ([3]; pH 9, 4 h): 2.39 ± 0.004% | degradation ([3]; pH 9, 4 h): approximately 98% | half-life at 5 μg/ml ([3]; phosphate buffer pH 6.8, pH 6.8): 1.32 h | half-life at 5 μg/ml ([3]; phosphate buffer pH 7.4, pH 7.4): 9.4 h | k value ([3]; pH 1.2): 0.039 | k value ([3]; pH 6.8): 0.52 | k value ([3]; pH 7.4): 0.073 | k value ([3]; pH 9): 0.95 | TDC % ([4]; Amber glass, 0 day): 100.00 ± 0% | TDC % ([4]; Amber glass, 10 days): 78.31 ± 7.1% | TDC % ([4]; Transparent, 0 day): 100.00 ± 0% | TDC % ([4]; Transparent, 10 days): 65.51 ± 7.5% | degradation ([4]; amber coloured containers, 10 days): 21.7% | degradation ([4]; transparent containers, 10 days): 35% | solubility (Solubility of curcumin; 50% (v/v) ethanol, aqueous with cosolvent or surfactant or cyclodextrin): 693 µg/mL (≈ 1880 µM) | solubility (Solubility of curcumin; water, read-out: aqueous solubility): 0.6 µg/mL (≈ 1.63 µM) | solubility (Solubility of curcumin; water, room temperature, read-out: Solubility in water): 0.003 ± 0.002 µg/mL (≈ 0.00814 µM)
SMILES: COc1cc(C=CC(=O)CC(=O)C=Cc2ccc(O)c(OC)c2)ccc1O [Free curcumin, 1,7-bis(4-hydroxy-3-methoxyphenyl)-1,6-hepadiene-3,5-dione]
increase in the oral bioavailability [5]: 154%
